Reference: patent US11000033B2, “Ketone or oxime compound, and herbicide” (NISSAN CHEMICAL CORPORATION, priority 2014, dated 2021)

Columns and labels:
Assay type in all cases: in vivo
rapeseed = assay: Test Example 5: effect on crop by foliage application, plastic box (symbol g); settings: 320 g/ha, 3 weeks after application
Outline: (§1)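 Plants were raised from seed in a greenhouse (25° C. to 30° C.) after sowing in a plastic box of sterilized diluvial soil.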

[1] = tested on: Echinochloa crus-galli var. crus-galli; assay: Test Example 3: herbicidal effect by foliage application, Wagner pot (symbol H); settings: application herbicide amount 320 g/ha
Outline: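 The compound, formulated as an emulsion and diluted with water to a predetermined rate, is applied uniformly to leaves of two-week-old seedlings growing in submerged alluvial soil at 25–30 °C. Rice is included. Each plant is assessed 3 weeks later using defined criteria.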

wheat = assay: Test Example 4: effect on crop by soil treatment (symbol e); settings: for e: wheat, effect on crop grade / e (wheat) effect on crop grade: application herbicide amount 320 g/ha
Outline: (§2)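 Sterilized diluvial soil, spot sowing, ~1.5 cm soil cover; greenhouse 25–30° C.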

Avena fatua = assay: Test Example 5: herbicidal effect by foliage application, plastic box (symbol I); settings: 320 g/ha, 3 weeks after application
Outline: (§3)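 Greenhouse foliar test: seedlings at 14 days, grown 25° C. to 30° C. in sterilized diluvial soil; compound applied as an aqueous dilution of an emulsion; response read 3 weeks after spraying.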

soybean = assay: Test Example 4: effect on crop by soil treatment (symbol d); settings: for d: soybean, effect on crop grade / d (soybean) effect on crop grade: application herbicide amount 320 g/ha
Outline: as §2

Amaranthus retroflexus = assay: Test Example 5: herbicidal effect by foliage application, plastic box (symbol N); settings: 320 g/ha, 3 weeks after application
Outline: as §3

corn = assay: Test Example 4: effect on crop by soil treatment (symbol c); settings: for c: corn, effect on crop grade / c (corn) effect on crop grade: application herbicide amount 320 g/ha
Outline: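 Soil-treatment setup: crop and weed seeds were spot-sown into sterilized diluvial soil, then buried beneath approximately 1.5 cm of it, and the boxes were housed in a 25–30° C. greenhouse.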

Lolium multiflorum Lam. = assay: Test Example 5: herbicidal effect by foliage application, plastic box (symbol K); settings: 320 g/ha, 3 weeks after application
Outline: as §3

Apera spica-venti [2] = assay: Test Example 5: herbicidal effect by foliage application, plastic box (symbol L); settings: 320 g/ha, 3 weeks after application
Outline: as §3

Scirpus juncoides = assay: Test Example 2: herbicidal activity, application during weed generation in submerged conditions (symbol B); settings: Table 23; application herbicide amount 320 g/ha; grade 0-5 by criteria of Test Example 1
Outline: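 Treatment timing was the one- to two-leaf stage, with diluted emulsifiable compound dropped onto the paddy water (depth 4 cm) over alluvial soil. All three species grew from a mixed sowing in a 25° C. to 30° C. greenhouse. Injury was judged by eye 3 weeks on.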

Stellaria media = assay: Test Example 4: herbicidal effect by soil treatment (symbol P)
Outline: (§4)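 Seeds were sown in sterilized diluvial soil, covered with about 1.5 cm of soil, and the soil surface was sprayed with a water-diluted emulsion of the compound at a predetermined rate. Plants grew in a greenhouse at 25° C. to 30° C.; effects were scored visually 3 weeks after application.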

Apera spica-venti [3] = assay: Test Example 4: herbicidal effect by soil treatment (symbol L); settings: application herbicide amount 320 g/ha
Outline: as §4

[4] = tested on: Echinochloa crus-galli var. crus-galli; assay: Test Example 5: herbicidal effect by foliage application, plastic box (symbol H); settings: 320 g/ha, 3 weeks after application
Outline: as §3

beet = assay: Test Example 5: effect on crop by foliage application, plastic box (symbol f); settings: 320 g/ha, 3 weeks after application
Outline: as §1

[5] = application herbicide amount 320 g/ha

SMILES	g: rapeseed, effect on crop grade (rapeseed)	herbicidal effect on H (Echinochloa crus-galli var. crus-galli), grade 0-5 [1]	e: wheat, effect on crop grade (wheat)	I: Avena fatua, herbicidal effect grade (Avena fatua)	d: soybean, effect on crop grade (soybean)	N: Amaranthus retroflexus, herbicidal effect grade (Amaranthus retroflexus)	c: corn, effect on crop grade (corn)	K: Lolium multiflorum Lam., herbicidal effect grade (Lolium multiflorum Lam.)	L: Apera spica-venti, herbicidal effect grade (Apera spica-venti [2])	Herbicidal effect grade, B: Scirpus juncoides (Scirpus juncoides)	L: Apera spica-venti, herbicidal effect grade (Apera spica-venti [3])	H: Echinochloa crus-galli var. crus-galli, herbicidal effect grade [4]	e (wheat) effect on crop grade (wheat)	f: beet, effect on crop grade (beet)	d (soybean) effect on crop grade (soybean)	c (corn) effect on crop grade (corn)	L (Apera spica-venti) herbicidal effect grade (Apera spica-venti [3])	also measured
CON=C(C)CC1CC(O)=C(c2c(C)cc(-n3cc(Cl)cn3)cc2C)C1=O (mixture of isomers) [6-004]	4 (Herbicidal ratio of 70% or higher and lower than 90%)	5 (Herbicidal ratio of 90% or more (almost completely withered))	0 (Herbicidal ratio of 5% or lower (almost no effect))	4 (Herbicidal ratio of 70% or higher and lower than 90%)	0 (Herbicidal ratio of 5% or lower (almost no effect))	2 (Herbicidal ratio of 20% or higher and lower than 40%)	2 (Herbicidal ratio of 20% or higher and lower than 40%)	5 (Herbicidal ratio of 90% or more (almost completely withered))	5 (Herbicidal ratio of 90% or more (almost completely withered))	4 (Herbicidal ratio of 70% or higher and lower than 90%)	5 (Herbicidal ratio of 90% or more (almost completely withered))	5 (Herbicidal ratio of 90% or more (almost completely withered))						P: Stellaria media, herbicidal effect grade (Stellaria media; [5]): 0 (Herbicidal ratio of 5% or lower (almost no effect))
C#CCOC1=C(c2c(C)cc(C)cc2C)C(=O)C(CC(C)=NOC)C1 (stereo not drawn) [1-008]	3 (Herbicidal ratio of 40% or higher and lower than 70%)	5 (Herbicidal ratio of 90% or more (almost completely withered))		4 (Herbicidal ratio of 70% or higher and lower than 90%)		0 (Herbicidal ratio of 5% or lower (almost no effect))		5 (Herbicidal ratio of 90% or more (almost completely withered))	4 (Herbicidal ratio of 70% or higher and lower than 90%)	2 (Herbicidal ratio of 20% or higher and lower than 40%)		4 (Herbicidal ratio of 70% or higher and lower than 90%)	0 (Herbicidal ratio of 5% or lower (almost no effect))	0 (Herbicidal ratio of 5% or lower (almost no effect))	0 (Herbicidal ratio of 5% or lower (almost no effect))	0 (Herbicidal ratio of 5% or lower (almost no effect))	5 (Herbicidal ratio of 90% or more (almost completely withered))	
CON=C(C)CC1CC(OCCSC)=C(c2c(C)cc(C)cc2C)C1=O (stereo not drawn) [1-011]	4 (Herbicidal ratio of 70% or higher and lower than 90%)	0 (Herbicidal ratio of 5% or lower (almost no effect))		0 (Herbicidal ratio of 5% or lower (almost no effect))		0 (Herbicidal ratio of 5% or lower (almost no effect))		5 (Herbicidal ratio of 90% or more (almost completely withered))	5 (Herbicidal ratio of 90% or more (almost completely withered))	0 (Herbicidal ratio of 5% or lower (almost no effect))		0 (Herbicidal ratio of 5% or lower (almost no effect))	0 (Herbicidal ratio of 5% or lower (almost no effect))	0 (Herbicidal ratio of 5% or lower (almost no effect))	0 (Herbicidal ratio of 5% or lower (almost no effect))	0 (Herbicidal ratio of 5% or lower (almost no effect))	0 (Herbicidal ratio of 5% or lower (almost no effect))	
CON=C(C)CC1CC(OCC#N)=C(c2c(C)cc(C)cc2C)C1=O (stereo not drawn) [1-013]	4 (Herbicidal ratio of 70% or higher and lower than 90%)	0 (Herbicidal ratio of 5% or lower (almost no effect))		0 (Herbicidal ratio of 5% or lower (almost no effect))		0 (Herbicidal ratio of 5% or lower (almost no effect))		5 (Herbicidal ratio of 90% or more (almost completely withered))	4 (Herbicidal ratio of 70% or higher and lower than 90%)	0 (Herbicidal ratio of 5% or lower (almost no effect))		0 (Herbicidal ratio of 5% or lower (almost no effect))	0 (Herbicidal ratio of 5% or lower (almost no effect))	0 (Herbicidal ratio of 5% or lower (almost no effect))	0 (Herbicidal ratio of 5% or lower (almost no effect))	0 (Herbicidal ratio of 5% or lower (almost no effect))		P (Stellaria media) herbicidal effect grade (Stellaria media; [5]): 0 (Herbicidal ratio of 5% or lower (almost no effect))
CON=C(C)CC1CC(OC(=O)Cc2ccc(OC)cc2)=C(c2c(C)cc(C)cc2C)C1=O (stereo not drawn) [1-156]	4 (Herbicidal ratio of 70% or higher and lower than 90%)	5 (Herbicidal ratio of 90% or more (almost completely withered))		5 (Herbicidal ratio of 90% or more (almost completely withered))		3 (Herbicidal ratio of 40% or higher and lower than 70%)		5 (Herbicidal ratio of 90% or more (almost completely withered))	5 (Herbicidal ratio of 90% or more (almost completely withered))	5 (Herbicidal ratio of 90% or more (almost completely withered))		5 (Herbicidal ratio of 90% or more (almost completely withered))		3 (Herbicidal ratio of 40% or higher and lower than 70%)				e: wheat, effect grade on crop (wheat; 320 g/ha): 5 (Herbicidal ratio of 90% or more (almost completely withered)); d: soybean, effect grade on crop (soybean; 320 g/ha): 0 (Herbicidal ratio of 5% or lower (almost no effect)); c: corn, effect grade on crop (corn; 320 g/ha): 1 (Herbicidal ratio of 5% or higher and lower than 20%); P: Stellaria media, herbicidal effect grade (Stellaria media; 320 g/ha): 2 (Herbicidal ratio of 20% or higher and lower than 40%)
Cc1cc(C)c(C2=C(O)CC(CC(=O)C(C)C)C2=O)c(C)c1 (stereo not drawn) [2-016]	4 (Herbicidal ratio of 70% or higher and lower than 90%)	5 (Herbicidal ratio of 90% or more (almost completely withered))	0 (Herbicidal ratio of 5% or lower (almost no effect))	4 (Herbicidal ratio of 70% or higher and lower than 90%)	0 (Herbicidal ratio of 5% or lower (almost no effect))	3 (Herbicidal ratio of 40% or higher and lower than 70%)	3 (Herbicidal ratio of 40% or higher and lower than 70%)	5 (Herbicidal ratio of 90% or more (almost completely withered))	4 (Herbicidal ratio of 70% or higher and lower than 90%)	0 (Herbicidal ratio of 5% or lower (almost no effect))	2 (Herbicidal ratio of 20% or higher and lower than 40%)	5 (Herbicidal ratio of 90% or more (almost completely withered))		0 (Herbicidal ratio of 5% or lower (almost no effect))				
